Patent US5776461A, “Cosmetic compositions containing phytovitamin D” (Chesebrough-Pond's USA Co., Division of Conopco, Inc., priority 1996, dated 1998)
Entries after “also recorded” stand apart in the source; their conditions may differ.

Experiments:
HL-60 cells = assay: HL-60 cell differentiation assay (nonspecific esterase expression); format: cell-based; details: for HL-60 differentiation activity (in words): pure vitamin D compounds; for % differentiation: 48 hrs
Excerpt: This test can be utilized to assess the vitamin D content of plant extracts after converting the glycosides and other hydroxylated forms of vitamin D to 1,25-(OH)2 D. One can achieve this by following the procedure: [drawing 2] Glycosidases cleave vitamin D glycosides to the aglycone form (free steroid form). […] This can be again extracted into chloroform phase and redissolved in ethanol and tested in the HL-60 cell differentiation assay. Using this procedure, the glycosylated and nonglycosylated forms of 25-D and 1,25-(OH)2 D of both vitamin D2 and D3 can be quantitated in HL-60 cell differentiation assay.
a. Plant Extract preparation: The plant extracts are prepared by extracting the dry plant powders with ethanol or other solvents by stirring 1 part of the plant material with 5 to 10 parts of the solvent for 3 to 18 hours at room temperature. Suitable solvents are described hereinbelow. The extracts are clarified by filtration, then dried by evaporation to obtain a dried plant extract.
b. Treatment of Dried Plant Extracts with Glycosidase: 50 mg of dried plant extract are resuspended in 4 ml citrate-phosphate buffer and incubated overnight with a glycosidase enzyme (e.g., from an almond meal extract). After incubation, the mixture is extracted with chloroform. The chloroform phase containing the nonglycosylated vitamin D compounds is dried and resuspended in ethanol at a concentration of 5 mg/ml of ethanol.
c. Hydroxylase Treatment of product of step (b) (Non-Glycosylated Vitamin D Compounds): Human keratinocytes in culture express high amounts of 25(OH) vitamin D 1-a hydroxylase activity. For converting into the 1,25-(OH)2 D, which is detected by the product of step (b) in the HL-60 assay, is treated with a keratinocyte homogenate for 1 hour at 37° C. (50 μl of the product of step b with 1 ml of cell homogenate containing 100-200 μg cell protein). After the treatment, the mixture is extracted with chloroform:methanol (1:1), the chloroform phase is dried down, resuspended in ethanol and used in the HL-60 cell differentiation assay.
d. HL-60 Cell Differentiation Assay: The differentiation of HL-60 cells can be assessed by a simple cytochemical method for the expression of non-specific esterase activity (expressed only in the differentiated monocyte/macrophage phenotype) using α-naphthyl acetate as a substrate. HL-60 cell line is obtained (e.g. from American Type Culture Collection (ATCC)) and cultures are established in the laboratory (e.g. using RPMI medium containing 20% fetal calf serum (FCS)). For incubation with the different plant extracts, cells are washed in phosphate buffered saline (PBS), then resuspended in RPMI medium containing 10% FCS and plated at a density of 750,000 cells per 1 ml in 6 well plates. The plates are then treated with either standard 1,25-(OH)2 D (0.1 to 100 nM) or the different plant extracts in ethanol, using a maximum ethanol concentration of 5 μl/ml of medium. The cells are treated for 48 hrs before processing for the esterase cytochemical assay.
Expression of nonspecific esterase in HL-60 cells is determined after mounting the cells onto slides using Cytospin. The slides are then fixed in citrateacetone-methanol for 1 min at room temperature, washed in deionized water and air dried for 20 min. The substrate solution for esterase is prepared according to the procedure provided by Sigma by adding 1 capsule of Fast Blue RR salt to 50 ml Trizma buffer (pH 7.6)and 2 ml of α-naphthyl acetate solution. The slides are incubated at 37° C. in this solution for 30 min in the dark. The slides are washed for 3 min in water, counterstained using Mayer's Hematoxylin solution air dried and viewed under microscope. The number of cells showing dark brown precipitate indicating esterase activity is counted and calculated as a percent of the total number of cells in 6 different areas of the slide (approximately 500 total cells).

[1] = tested on: vitamin D binding protein; details: 25-D = 100%; cited from earlier work
[2] = tested on: adult human keratinocytes; assay: cornified envelope formation of adult human keratinocytes; format: cell-based; details: Table 6; no almond meal extract, 48 hrs; 1,25-OH2 D at 1 nM
Experimental: In this method, keratinocytes were treated with the various extracts dissolved in ethanol (as described for the HL-60 assay) for 48 hrs in the presence of 5 uCi of 35S methionine included in the medium. The labelled methionine gets incorporated into the newly synthesized proteins during this 48 hr. period, including the proteins required for the formation of cornified envelopes. […] This treatment allows Ca to flow into the cells, maximally activate the enzyme transglutaminase and crosslinks all the labelled cornified envelope precursor proteins to form labelled cornified envelopes. The cells were then dissolved in 2%SDS/40 mM DTT, and the amount of insoluble cornified envelopes was quantitated by scintillation counting after separating from the soluble proteins by filtration on 0.2 micron filters.

keratinocyte = details: cited from earlier work
[3] = tested on: Cultured Human Keratinocytes; details: cited from earlier work

| Compound | HL-60 differentiation activity (in words) (HL-60 cells) | detection (cross-reactivity) in vitamin D binding assay [1] [%] | % differentiation (HL-60 cells; 0.1 nM) [%] | % differentiation (HL-60 cells; 1 nM) [%] | % differentiation (HL-60 cells; 10 nM) [%] | % differentiation (HL-60 cells; 100 nM) [%] | also measured |
| --- | --- | --- | --- | --- | --- | --- | --- |
| C=C1/C(=C\C=C2/CCC[C@]3(C)[C@@H]([C@H](C)CCC(O)C(C)(C)O)CC[C@@H]23)C[C@@H](O)CC1O (stereo partly drawn) [1,24,25-D(OH)3] | inactive at all concentrations | – | – | – | – | – | – |
| C=C1/C(=C\C=C2/CCC[C@]3(C)[C@@H]([C@H](C)CCCC(C)(C)O)CC[C@@H]23)C[C@@H](O)C[C@@H]1O [1,25-(OH)2 D, 1,25-Dihydroxyvitamin D3] | induces HL-60 cell differentiation in a dose-dependent manner; also recorded: promoted | 4 | 5 | 50 | 90 | 95 | lowest concentration at which differentiation ability could be detected (HL-60 cells; HL-60, 48 hrs): 0.1 nM; EC50 (HL-60 cells; HL-60, 48 hrs, read-out: concentration for half maximal differentiation): 1 nM; cornified envelope formation, no hydrolysis [2]: 207.6 % of control |
| C=C1CC[C@H](O)C/C1=C/C=C1\CCC[C@]2(C)[C@@H]([C@H](C)CCC(O)C(C)(C)O)CC[C@@H]12 (stereo partly drawn) [24,25(OH)2 D] | – | 70 | – | – | – | – | – |
| C=C1CC[C@H](O)C/C1=C/C=C1\CCC[C@]2(C)[C@@H]([C@H](C)CCCC(C)(C)O)CC[C@@H]12 [25-D, 25-hydroxycholecalciferol] | inactive at all concentrations | 100 | – | 0 | 0 | 0 | HL-60 differentiation activity (in words) (HL-60 cells; listed as 25D): do not induce its differentiation |
| C=C1CC[C@H](O)C/C1=C/C=C1\CCC[C@]2(C)[C@@H]([C@H](C)CCCC(C)C)CC[C@@H]12 [Vitamin D3, cholecalciferol] | – | – | 0 | 0 | 0 | 0 | keratinocyte prodifferentiating activity (in words) (keratinocyte; applied topically to skin): neither has keratinocyte prodifferentiating activity; conversion in skin to 25-D (in words) [3]: nor is it converted in the skin to 25-D |
| Vitamin D | – | 0.4 | – | – | – | – | HL-60 differentiation activity (in words) (HL-60 cells; listed as non-hydroxylated vitamin D): inactive at all concentrations; HL-60 differentiation activity (in words) (HL-60 cells; listed as nonhydroxylated vitamin D): do not induce its differentiation; biological activity (in words) (keratinocyte; vitamin D per se): biologically inactive |
